What all share (experiment): biochemical
In assay [1] the target is T1, panel of 374 wild-type kinases (Homo sapiens, UniProt Q7L7X3).
T1 construct: purchased Reaction Biology Corporation
T1 sequence (Q7L7X3 1-1001): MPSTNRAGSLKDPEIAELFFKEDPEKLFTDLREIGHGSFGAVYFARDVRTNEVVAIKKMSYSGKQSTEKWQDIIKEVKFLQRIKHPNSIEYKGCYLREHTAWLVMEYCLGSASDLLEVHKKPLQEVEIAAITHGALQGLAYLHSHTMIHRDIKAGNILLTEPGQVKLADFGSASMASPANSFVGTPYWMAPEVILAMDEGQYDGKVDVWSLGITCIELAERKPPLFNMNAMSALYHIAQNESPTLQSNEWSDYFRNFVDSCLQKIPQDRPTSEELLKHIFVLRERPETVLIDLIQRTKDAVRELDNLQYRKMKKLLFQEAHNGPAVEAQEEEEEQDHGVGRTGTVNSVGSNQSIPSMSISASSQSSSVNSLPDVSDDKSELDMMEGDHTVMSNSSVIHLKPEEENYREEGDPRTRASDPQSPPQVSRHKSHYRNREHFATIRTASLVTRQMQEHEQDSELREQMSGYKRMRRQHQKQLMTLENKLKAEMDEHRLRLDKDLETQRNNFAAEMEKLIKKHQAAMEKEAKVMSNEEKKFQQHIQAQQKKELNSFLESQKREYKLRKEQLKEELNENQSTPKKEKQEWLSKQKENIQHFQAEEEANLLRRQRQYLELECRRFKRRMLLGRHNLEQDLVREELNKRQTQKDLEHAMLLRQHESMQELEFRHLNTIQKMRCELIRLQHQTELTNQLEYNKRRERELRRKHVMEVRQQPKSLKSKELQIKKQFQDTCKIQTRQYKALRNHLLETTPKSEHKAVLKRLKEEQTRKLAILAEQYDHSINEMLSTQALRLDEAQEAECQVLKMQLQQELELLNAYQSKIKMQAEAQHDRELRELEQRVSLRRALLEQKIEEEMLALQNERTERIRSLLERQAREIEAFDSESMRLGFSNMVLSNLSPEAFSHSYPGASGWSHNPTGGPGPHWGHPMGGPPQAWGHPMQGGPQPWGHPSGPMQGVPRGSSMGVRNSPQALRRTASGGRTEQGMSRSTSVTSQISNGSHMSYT
Conditions: read-out: % Enzyme Activity (relative to DMSO controls), kinase TAOK1.

Assay [2] addresses T2, panel of 374 wild-type kinases (Homo sapiens, UniProt Q8N5S9).
T2 construct: purchased Reaction Biology Corporation
Conditions: read-out: % Enzyme Activity (relative to DMSO controls), CAMKK1.

Assay [3] addresses T3, panel of 374 wild-type kinases (Homo sapiens, UniProt Q04771).
T3 construct: purchased Reaction Biology Corporation
T3 sequence (Q04771 21-509): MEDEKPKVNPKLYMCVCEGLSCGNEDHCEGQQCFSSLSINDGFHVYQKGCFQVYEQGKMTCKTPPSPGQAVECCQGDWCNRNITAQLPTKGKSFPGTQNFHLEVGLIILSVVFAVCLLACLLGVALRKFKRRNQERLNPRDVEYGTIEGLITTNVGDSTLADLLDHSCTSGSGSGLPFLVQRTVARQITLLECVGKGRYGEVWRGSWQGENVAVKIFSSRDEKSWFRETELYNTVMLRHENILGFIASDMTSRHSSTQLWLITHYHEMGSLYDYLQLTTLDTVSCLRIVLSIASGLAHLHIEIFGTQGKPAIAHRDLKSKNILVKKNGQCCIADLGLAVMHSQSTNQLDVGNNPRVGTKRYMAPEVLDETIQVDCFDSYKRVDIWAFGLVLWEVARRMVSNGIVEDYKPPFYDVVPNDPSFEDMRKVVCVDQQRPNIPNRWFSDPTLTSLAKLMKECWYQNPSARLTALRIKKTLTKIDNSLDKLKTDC
As to conditions: read-out: % Enzyme Activity (relative to DMSO controls), ALK2/ACVR1.

For assay [4], the target named is T4, panel of 374 wild-type kinases (Homo sapiens, UniProt O95835).
T4 construct: purchased Reaction Biology Corporation
T4 sequence (O95835 1-1130): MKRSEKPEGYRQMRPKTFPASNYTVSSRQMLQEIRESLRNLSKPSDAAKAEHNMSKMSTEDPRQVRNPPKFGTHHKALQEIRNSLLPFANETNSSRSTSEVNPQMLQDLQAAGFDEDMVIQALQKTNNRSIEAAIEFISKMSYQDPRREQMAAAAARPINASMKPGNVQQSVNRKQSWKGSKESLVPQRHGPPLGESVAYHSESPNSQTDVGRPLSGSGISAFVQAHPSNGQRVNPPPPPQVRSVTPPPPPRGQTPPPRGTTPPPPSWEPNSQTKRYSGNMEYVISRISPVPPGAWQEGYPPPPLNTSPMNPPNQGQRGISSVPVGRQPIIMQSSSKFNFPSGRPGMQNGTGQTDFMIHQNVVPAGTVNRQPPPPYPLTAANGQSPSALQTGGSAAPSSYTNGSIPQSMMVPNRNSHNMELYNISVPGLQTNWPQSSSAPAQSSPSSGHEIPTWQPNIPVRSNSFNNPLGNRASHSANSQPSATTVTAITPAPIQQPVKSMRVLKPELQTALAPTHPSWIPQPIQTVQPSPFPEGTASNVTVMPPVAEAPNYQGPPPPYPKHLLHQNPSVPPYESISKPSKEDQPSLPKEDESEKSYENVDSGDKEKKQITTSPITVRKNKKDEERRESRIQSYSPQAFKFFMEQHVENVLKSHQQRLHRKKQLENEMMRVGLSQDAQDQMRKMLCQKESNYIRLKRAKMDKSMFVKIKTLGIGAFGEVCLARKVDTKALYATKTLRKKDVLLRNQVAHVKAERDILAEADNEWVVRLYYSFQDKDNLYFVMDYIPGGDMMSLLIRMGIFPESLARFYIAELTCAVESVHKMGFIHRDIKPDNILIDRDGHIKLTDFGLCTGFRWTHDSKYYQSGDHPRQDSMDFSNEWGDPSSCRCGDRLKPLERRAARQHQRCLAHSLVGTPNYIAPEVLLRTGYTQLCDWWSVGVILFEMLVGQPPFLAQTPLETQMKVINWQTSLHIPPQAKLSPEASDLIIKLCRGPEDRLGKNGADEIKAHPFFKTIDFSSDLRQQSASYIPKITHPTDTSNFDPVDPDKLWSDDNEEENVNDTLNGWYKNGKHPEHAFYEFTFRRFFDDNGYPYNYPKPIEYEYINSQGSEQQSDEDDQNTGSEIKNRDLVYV
Conditions: read-out: % Enzyme Activity (relative to DMSO controls), LATS1.

T2 sequence (Q8N5S9 whole entry): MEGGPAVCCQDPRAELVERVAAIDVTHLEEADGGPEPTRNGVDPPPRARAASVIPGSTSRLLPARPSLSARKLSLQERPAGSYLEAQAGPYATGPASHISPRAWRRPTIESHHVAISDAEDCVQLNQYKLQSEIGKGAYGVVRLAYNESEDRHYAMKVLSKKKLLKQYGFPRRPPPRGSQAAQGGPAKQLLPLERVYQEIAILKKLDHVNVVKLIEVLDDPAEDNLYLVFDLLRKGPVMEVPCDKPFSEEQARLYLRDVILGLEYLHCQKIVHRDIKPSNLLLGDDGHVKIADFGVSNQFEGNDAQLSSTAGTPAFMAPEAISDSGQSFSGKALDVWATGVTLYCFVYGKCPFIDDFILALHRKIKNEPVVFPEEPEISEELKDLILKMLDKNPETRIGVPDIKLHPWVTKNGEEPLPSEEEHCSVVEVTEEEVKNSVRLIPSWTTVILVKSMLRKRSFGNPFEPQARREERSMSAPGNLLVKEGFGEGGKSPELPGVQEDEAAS

Consider `O=C(Nc1cnn(-c2csc(C(=O)NC3COC3)c2)c1)Nc1ccccc1Cl` [Compound 17, 4-(4-(3-(2-chlorophenyl)ureido)-1H-pyrazol-1-yl)-N-(oxetan-3-yl)thiophene-2-carboxamide], for which the remaining activity at 5 µM in assay [1] was determined as 122%; in assay [2] it was 130%; in assay [3] it was 105%; in assay [4] it was 106%.
On the same counts, the results for `O=C(Nc1cnn(-c2csc(C(=O)NC3COC3)c2)c1)Nc1c(F)cccc1Cl` [Compound 25, 4-(4-(3-(2-chloro-6-fluorophenyl)ureido)-1H-pyrazol-1-yl)-N-(oxetan-3-yl)thiophene-2-carboxamide] are 90.6%, 93.7%, 95.7% and 93.5%.
`Cc1sc(C(=O)NC2COC2)cc1-n1cc(NC(=O)Nc2c(F)cccc2Cl)cn1` [Compound 27, 4-(4-(3-(2-chloro-6-fluorophenyl)ureido)-1H-pyrazol-1-yl)-5-methyl-N-(oxetan-3-yl)thiophene-2-carboxamide]: the remaining activity at 10 µM is 110% in assay [1] (10 uM), 121% in assay [2] (10 uM), 108% in assay [3] (10 uM) and 97.2% in assay [4] (10 uM).

For the origin of these results see US20240246942A1, “KINASE INHIBITORS FOR THE TREATMENT OF NEURODEGENERATIVE DISEASES” (priority 2020, published 2024).
